In patent US8735406B2, “8-oxodihydropurine derivative” (Dainippon Sumitomo Pharma Co., Ltd., priority 2009, dated 2014):

Molecular target: T1, FAAH (Rattus norvegicus, UniProt P97612)
T1 construct: Preparation of Rat Brain Membranes Preparations (FAAH Enzyme Solution); from tissue; host or cells: rat cerebrum (brain membrane preparation)
T1 sequence (P97612 1-579): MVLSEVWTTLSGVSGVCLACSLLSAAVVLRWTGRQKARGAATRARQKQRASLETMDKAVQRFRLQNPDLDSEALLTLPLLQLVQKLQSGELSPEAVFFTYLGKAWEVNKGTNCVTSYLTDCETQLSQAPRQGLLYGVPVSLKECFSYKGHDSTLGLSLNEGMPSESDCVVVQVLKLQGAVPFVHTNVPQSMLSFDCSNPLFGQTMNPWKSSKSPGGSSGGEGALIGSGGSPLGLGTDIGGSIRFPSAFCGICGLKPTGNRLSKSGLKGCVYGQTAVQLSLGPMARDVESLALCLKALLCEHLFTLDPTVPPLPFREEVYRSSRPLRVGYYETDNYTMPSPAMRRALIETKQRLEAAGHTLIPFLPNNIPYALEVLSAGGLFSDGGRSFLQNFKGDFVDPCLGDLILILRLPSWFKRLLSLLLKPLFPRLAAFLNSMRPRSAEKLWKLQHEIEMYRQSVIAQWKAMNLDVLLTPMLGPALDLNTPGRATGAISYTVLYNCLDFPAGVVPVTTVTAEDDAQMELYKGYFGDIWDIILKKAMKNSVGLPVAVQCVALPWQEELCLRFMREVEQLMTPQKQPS
Experiment: Determination of FAAH inhibitory activity in rat (rat brain membrane preparations, [3H]-anandamide hydrolysis)
Type: biochemical
Conditions: rat brain membrane preparations; for inhibition at 0.1 µM: 100 nM test substance, read-out: FAAH Inhibition, Inhibition Rate at 100 nM; for IC50: test substance 0.1 nM to 1 μM, read-out: FAAH Inhibition IC50
Procedure, shortened: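 Compounds tested from 0.1 nM to 1 μM to derive IC50 against FAAH hydrolysis in rat brain membrane preparations (100 μg/mL). A 10-min 37 °C preincubation was followed by 10 min with [3H]-anandamide (2 nM) mixed with 2 μM unlabelled anandamide. Radioactive ethanolamine was extracted into the water/methanol layer and counted.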

Row | inhibition at 0.1 µM [%] | IC50 [nM] | Structure (SMILES)
1 | 102 | 4 | CC(=O)c1ccc(-c2ncc3c(n2)n(C)c(=O)n3C(=O)N2CCCC2)cc1 [compound 184]
2 | 58 | 89 | Cn1c(=O)n(C(=O)N2CCCC2)c2cnc(-c3ccc(C(C)(C)C)cc3)nc21 [compound 185]
3 | 102 | 7 | CC(=O)c1cccc(-c2ncc3c(n2)n(C)c(=O)n3C(=O)N2CCCC2)c1 [compound 186]
4 | 99 | 9 | Cn1c(=O)n(C(=O)N2CCCC2)c2cnc(-c3ccc(F)cc3F)nc21 [compound 188]
5 | 100 | 6 | Cn1c(=O)n(C(=O)N2CCCC2)c2cnc(-c3ccc(F)c(F)c3)nc21 [compound 190]
6 | 105 | 7 | COc1ccc(-c2ncc3c(n2)n(C)c(=O)n3C(=O)N2CCCC2)cc1F [compound 191]
7 | 103 | 39 | Cc1ccc(-c2ncc3c(n2)n(C)c(=O)n3C(=O)N2CCCC2)cc1F [compound 192]
8 | 102 | 42 | CCOc1cc(F)cc(-c2ncc3c(n2)n(C)c(=O)n3C(=O)N2CCCC2)c1 [compound 193]
9 | 83 | 66 | COc1ccc(F)cc1-c1ncc2c(n1)n(C)c(=O)n2C(=O)N1CCCC1 [compound 195]
10 | 69 | 70 | Cc1cc(C)cc(-c2ncc3c(n2)n(C)c(=O)n3C(=O)N2CCCC2)c1 [compound 197]
11 | 92 | 46 | Cn1c(=O)n(C(=O)N2CCCC2)c2cnc(-c3ccc(OC(F)(F)F)c(F)c3)nc21 [compound 198]
12 | 68 | 72 | Cn1c(=O)n(C(=O)N2CCCC2)c2cnc(-c3cc(C(F)(F)F)ccc3F)nc21 [compound 199]
13 | 81 | 56 | Cn1c(=O)n(C(=O)N2CCCC2)c2cnc(-c3cccc(OC(F)(F)F)c3)nc21 [compound 204]
14 | 106 | 10 | COc1cncc(-c2ncc3c(n2)n(C)c(=O)n3C(=O)N2CCCC2)c1 [compound 208]
15 | 103 | 24 | Cn1c(=O)n(C(=O)N2CCCC2)c2cnc(-c3cccnc3F)nc21 [compound 209]
16 | 103 | 8 | CCOc1ccc(-c2ncc3c(n2)n(C)c(=O)n3C(=O)N2CCCC2)cn1 [compound 210]
17 | 101 | 8 | Cn1c(=O)n(C(=O)N2CCCC2)c2cnc(-c3cncc(F)c3)nc21 [compound 211]
18 | 88 | 54 | Cc1cncc(-c2ncc3c(n2)n(C)c(=O)n3C(=O)N2CCCC2)c1 [compound 212]
19 | 57 | 89 | Cn1c(=O)n(C(=O)N2CCCC2)c2nc(-c3ccccc3F)ncc21 [compound 225]
20 | 40 | > 100 | COc1ccc(/C=C/c2ncc3c(n2)n(C(=O)N2CCCC2)c(=O)n3C)cc1 [compound 242]

Row | inhibition at 0.1 µM [%] | IC50 [nM] | Structure (SMILES)
21 | 95 | 41 | Cc1ccc(Cc2ncc3c(n2)n(C)c(=O)n3C(=O)N2CCCC2)cc1 [compound 259]
22 | 84 | 58 | COc1ccccc1Cc1ncc2c(n1)n(C)c(=O)n2C(=O)N1CCCC1 [compound 260]
23 | 75 | 68 | CCOc1ccc(Cc2ncc3c(n2)n(C)c(=O)n3C(=O)N2CCCC2)cc1 [compound 263]
24 | 91 | 54 | Cn1c(=O)n(C(=O)N2CCCC2)c2cnc(Cc3ccc(C#N)cc3)nc21 [compound 264]
25 | 96 | 42 | Cn1c(=O)n(C(=O)N2CCCC2)c2cnc(Cc3ccc(F)c(F)c3)nc21 [compound 269]
26 | 39 | > 100 | COc1cc(Cc2ncc3c(n2)n(C)c(=O)n3C(=O)N2CCCC2)cc(OC)c1 [compound 271]
27 | 35 | > 100 | Cn1c(=O)n(C(=O)N2CCCC2)c2cnc(Cc3cccc(-c4ccccc4)c3)nc21 [compound 272]
28 | 59 | 74 | CCN(C)C(=O)n1c(=O)n(C)c2nc(Cc3ccc(C(F)(F)F)cc3)ncc21 [compound 283]
29 | 66 | 77 | Cn1c(=O)n(C(=O)N2CCCC2)c2nc(Cc3ccccc3)ncc21 [compound 285]
30 | 58 | 75 | COc1ccccc1Cc1ncc2c(n1)n(C(=O)N1CCCC1)c(=O)n2C [compound 291]
31 | 90 | 27 | CN(C)C(=O)n1c(=O)n(C)c2cnc(-c3ccc(OC(F)(F)F)cc3)nc21 [compound 318]
32 | 95 | 18 | CN(C)C(=O)n1c(=O)n(C)c2cnc(-c3cccc(OC(F)(F)F)c3)nc21 [compound 319]
33 | 45 | 113 | CCOc1ccc(-c2ncc3c(n2)n(C(=O)N(C)C)c(=O)n3C)cc1 [compound 320]
34 | 54 |  | CCOc1cccc(-c2ncc3c(n2)n(C(=O)N(C)C)c(=O)n3C)c1 [compound 321]
35 | 57 | 77 | CN(C)C(=O)n1c(=O)n(C)c2cnc(-c3cccc(F)c3)nc21 [compound 323]
36 | 55 | 82 | Cc1cccc(-c2ncc3c(n2)n(C(=O)N(C)C)c(=O)n3C)c1 [compound 324]
37 | 101 | 11 | CN(C)C(=O)n1c(=O)n(C)c2cnc(-c3cccc(C(F)(F)F)c3)nc21 [compound 325]
38 | 23 | 109 | CN(C)C(=O)n1c(=O)n(C)c2cnc(-c3cccc(OCc4ccccc4)c3)nc21 [compound 327]
39 | 118 | 5 | CN(C)C(=O)n1c(=O)n(C)c2cnc(-c3cccc(Cl)c3)nc21 [compound 328]
40 | 95 | 12 | CN(C)C(=O)n1c(=O)n(C)c2cnc(-c3ccc(Cl)cc3)nc21 [compound 329]

Row | inhibition at 0.1 µM [%] | IC50 [nM] | Structure (SMILES)
41 | 71 | 50 | CCN(C)C(=O)n1c(=O)n(C)c2cnc(-c3cccc(C)c3)nc21 [compound 340]
42 | 102 | < 1 | CCN(C)C(=O)n1c(=O)n(C)c2cnc(-c3cccc(OC(F)(F)F)c3)nc21 [compound 341]
43 | 76 | 52 | CCN(C)C(=O)n1c(=O)n(C)c2cnc(-c3cccc(Cl)c3)nc21 [compound 342]
44 | 95 | 14 | CCN(C)C(=O)n1c(=O)n(C)c2cnc(-c3cccc(OC(F)F)c3)nc21 [compound 343]
45 | 93 | 13 | CCN(C)C(=O)n1c(=O)n(C)c2cnc(-c3cccc(C(F)F)c3)nc21 [compound 344]
46 | 101 | 9 | CCN(C)C(=O)n1c(=O)n(C)c2cnc(-c3ccc(OC(F)F)cc3)nc21 [compound 345]
47 | 99 | 21 | CCOc1cccc(-c2ncc3c(n2)n(C(=O)N2CCC2)c(=O)n3C)c1 [compound 346]
48 | 72 | 61 | CCOc1ccc(-c2ncc3c(n2)n(C(=O)N2CCC2)c(=O)n3C)cc1 [compound 347]
49 | 90 | 28 | CCCCOc1cccc(-c2ncc3c(n2)n(C(=O)N2CCC2)c(=O)n3C)c1 [compound 348]
50 | 103 | 10 | CCCCOc1ccc(-c2ncc3c(n2)n(C(=O)N2CCC2)c(=O)n3C)cc1 [compound 349]
51 | 94 | 10 | Cn1c(=O)n(C(=O)N2CCC2)c2nc(-c3cccc(OC(F)(F)F)c3)ncc21 [compound 350]
52 | 104 | 10 | Cn1c(=O)n(C(=O)N2CCC2)c2nc(-c3ccc(OC(F)(F)F)cc3)ncc21 [compound 351]
53 | 42 | 164 | Cn1c(=O)n(C(=O)N2CCC2)c2nc(-c3ccccc3)ncc21 [compound 352]
54 | 72 | 92 | Cn1c(=O)n(C(=O)N2CCC2)c2nc(-c3cccc(F)c3)ncc21 [compound 353]
55 | 79 | 52 | Cn1c(=O)n(C(=O)N2CCC2)c2nc(-c3ccc(F)cc3)ncc21 [compound 354]
56 | 76 | 86 | COc1cccc(-c2ncc3c(n2)n(C(=O)N2CCC2)c(=O)n3C)c1 [compound 355]
57 | 107 | 11 | Cn1c(=O)n(C(=O)N2CCC2)c2nc(-c3cccc(C(F)(F)F)c3)ncc21 [compound 357]
58 | 99 | 17 | Cn1c(=O)n(C(=O)N2CCC2)c2nc(-c3ccc(OCC(F)F)cc3)ncc21 [compound 368]
59 | 43 | 149 | Cc1cccc(Cc2ncc3c(n2)n(C)c(=O)n3C(=O)N2CCC2)c1 [compound 371]
